The target of assay [1] is T1, ΔF508-CFTR (Homo sapiens, UniProt P13569, DEL508-508).
T1 construct: host or cells: CFBE41o-, doxycycline-inducible
Kind of assay: CFTR cell surface levels using HRP-tagged ΔF508-CFTR expressing CFBE cells, intrinsic corrector capacity. It is filed as cell-based. Particulars: for EC50: read-out: EC50. The method in brief: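 Here the cells express ΔF508-CFTR with horseradish peroxidase inserted in extracellular loop 4, so only rescued channel at the surface gives luminescent signal. Compounds act on their own, 20 h at the reduced temperature of 33 °C; values are percent activity relative to DMSO and a 3 μM corrector.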

The target of assay [2] is T1, ΔF508-CFTR. Kind of assay: CFTR cell surface levels using HRP-tagged ΔF508-CFTR expressing CFBE cells, in the presence of a co-corrector. It is filed as cell-based. Particulars: HRP-tagged ΔF508-CFTR expressing CFBE cells, in the presence of 3 μM co-corrector; for EC50: read-out: EC50. The method in brief: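 Cells were seeded with 0.5 μg/mL doxycycline and held 68 h at 37 °C. Test compounds plus 3 μM co-corrector (final 0.1% DMSO) were then added for 20 h at 33 °C. Washed cells received HRP substrate, and luminescence was normalized between DMSO and 3 μM co-corrector controls.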

The mark [3] stands for this setting: HRP-tagged ΔF508-CFTR expressing CFBE cells, intrinsic corrector capacity (no co-corrector), 33° C., 20 hours.
Where [4] appears, read: HRP-tagged ΔF508-CFTR CFBE41o- cells, compounds alone (intrinsic corrector capacity), 20 hours at 33° C., positive control 3 μM corrector.
Where [5] appears, read: HRP-tagged ΔF508-CFTR CFBE41o- cells, compounds alone (intrinsic corrector capacity), 20 hours at 33° C.

SMILES strings stand for the structures. A value given as a limit tells only on which side of the number the result lay.

T1 sequence (P13569 with tags, fused parts or gaps DEL508-508): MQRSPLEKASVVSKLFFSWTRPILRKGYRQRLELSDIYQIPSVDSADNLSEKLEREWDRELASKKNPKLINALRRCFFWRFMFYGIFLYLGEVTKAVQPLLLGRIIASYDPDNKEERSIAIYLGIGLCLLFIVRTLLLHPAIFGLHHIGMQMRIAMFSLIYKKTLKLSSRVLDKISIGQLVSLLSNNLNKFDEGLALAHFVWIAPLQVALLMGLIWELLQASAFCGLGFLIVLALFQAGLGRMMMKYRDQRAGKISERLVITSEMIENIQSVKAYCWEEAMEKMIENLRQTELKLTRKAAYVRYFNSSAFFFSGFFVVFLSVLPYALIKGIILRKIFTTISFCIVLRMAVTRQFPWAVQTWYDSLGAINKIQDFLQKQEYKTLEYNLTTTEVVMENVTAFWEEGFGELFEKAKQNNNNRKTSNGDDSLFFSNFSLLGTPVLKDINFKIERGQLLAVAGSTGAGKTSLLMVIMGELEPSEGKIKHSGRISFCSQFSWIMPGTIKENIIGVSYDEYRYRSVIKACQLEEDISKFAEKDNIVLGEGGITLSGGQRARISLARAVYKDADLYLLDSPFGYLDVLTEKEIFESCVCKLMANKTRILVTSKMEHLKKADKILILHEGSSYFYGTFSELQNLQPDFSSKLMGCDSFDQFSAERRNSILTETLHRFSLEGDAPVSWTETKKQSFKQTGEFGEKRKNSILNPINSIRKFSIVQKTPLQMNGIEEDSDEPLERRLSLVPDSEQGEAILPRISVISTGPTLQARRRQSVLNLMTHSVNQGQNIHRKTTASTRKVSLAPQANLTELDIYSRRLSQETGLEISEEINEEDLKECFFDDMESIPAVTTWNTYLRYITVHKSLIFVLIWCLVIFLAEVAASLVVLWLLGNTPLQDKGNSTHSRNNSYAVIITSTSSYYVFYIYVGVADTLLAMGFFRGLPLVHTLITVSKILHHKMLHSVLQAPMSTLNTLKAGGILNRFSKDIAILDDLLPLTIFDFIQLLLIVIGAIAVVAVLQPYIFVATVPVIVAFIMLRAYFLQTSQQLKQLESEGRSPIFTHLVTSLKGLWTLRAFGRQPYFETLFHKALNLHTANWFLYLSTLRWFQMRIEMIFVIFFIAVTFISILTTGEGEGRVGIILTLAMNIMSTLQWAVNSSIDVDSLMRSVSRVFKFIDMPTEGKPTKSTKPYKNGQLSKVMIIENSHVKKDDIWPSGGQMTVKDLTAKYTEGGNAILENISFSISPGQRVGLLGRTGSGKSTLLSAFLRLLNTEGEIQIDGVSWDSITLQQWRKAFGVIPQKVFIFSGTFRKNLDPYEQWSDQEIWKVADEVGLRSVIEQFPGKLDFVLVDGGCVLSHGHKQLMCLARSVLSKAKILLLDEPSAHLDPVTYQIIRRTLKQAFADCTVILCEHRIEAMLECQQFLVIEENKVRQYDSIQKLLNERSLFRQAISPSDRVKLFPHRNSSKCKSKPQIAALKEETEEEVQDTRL

For `O=C(O)c1cc(N2CCC3C(CCN3C3CCC3)C2)c2c(C3CCC3)nn(-c3ccc(F)cc3)c2n1` (stereo not shown) [compound 901, 3-cyclobutyl-4-(1-cyclobutyloctahydro-5H-pyrrolo[3,2-c]pyridin-5-yl)-1-(4-fluorophenyl)-1H-pyrazolo[3,4-b]pyridine-6-carboxylic acid], on ΔF508-CFTR [1] (setting [3]), the “% Activation” value was found to be 199.2% and the EC50 turned out to be 87.6 nM. At ΔF508-CFTR [2], the “% Activation” value is listed as 432.3% and the EC50 came to 151 nM.

Regarding `CC(C)c1nn(-c2ccc(F)cc2)c2nc(C(=O)O)cc(N3CCC(CC4CCCCC4)CC3)c12` [compound 780, 4-[4-(cyclohexylmethyl)piperidin-1-yl]-1-(4-fluorophenyl)-3-(propan-2-yl)-1H-pyrazolo[3,4-b]pyridine-6-carboxylic acid], at ΔF508-CFTR [1] (setting [3]), the “% Activation” value stood at 233.5% and the EC50 is 249 nM. Also, on ΔF508-CFTR [2], the “% Activation” value was 429.5% and the EC50 amounted to 124 nM.

Turning to `O=C(O)c1cc(N2CCC(OCC(=O)N3CCCC3)CC2)c2c(C3CCC3)nn(-c3ccccc3)c2n1` [compound 367, 3-cyclobutyl-4-{4-[2-oxo-2-(pyrrolidin-1-yl)ethoxy]piperidin-1-yl}-1-phenyl-1H-pyrazolo[3,4-b]pyridine-6-carboxylic acid], the “% Activation” value at ΔF508-CFTR [1] (setting [4]) is on record as 239.55%; at ΔF508-CFTR [2] it was 406.35%. Besides, the EC50 at ΔF508-CFTR [1] (setting [5]) turned out to be 1010 nM; at ΔF508-CFTR [2], 669 nM.

As to `CC(C)c1nn(C2CCCC2)c2nc(C(=O)O)cc(-c3ccc(N4CCOCC4)nc3)c12` [compound 77, 1-cyclopentyl-4-[6-(morpholin-4-yl)pyridin-3-yl]-3-(propan-2-yl)-1H-pyrazolo[3,4-b]pyridine-6-carboxylic acid], the results for the “% Activation” value on ΔF508-CFTR [1] (setting [4]) and on ΔF508-CFTR [2] were 139.5% and 343.4%, respectively. Also, the values for the concentration for a half-maximal effect (EC50) at ΔF508-CFTR [1] (setting [5]) and at ΔF508-CFTR [2] were 1170 nM and 1110 nM, respectively.

For `O=C1CCC[C@H]2CN(c3cc(C(=O)O)nc4c3c(C3CCC3)nn4-c3ccccc3)C[C@H]2N1` [compound 505, 3-cyclobutyl-4-[(5aS,8aS)-2-oxooctahydropyrrolo[3,4-b]azepin-7(1H)-yl]-1-phenyl-1H-pyrazolo[3,4-b]pyridine-6-carboxylic acid], at ΔF508-CFTR [1] (setting [3]), the “% Activation” value is -6.616% and the EC50 is above 10000 nM. Further, at ΔF508-CFTR [2], the “% Activation” value was 118.3% and the 50% effective concentration (EC50) is above 10000 nM.

Turning to `CC(C)c1nn(-c2cccc(C(F)(F)F)c2)c2nc(C(=O)O)cc(-c3ccc(N4CCC(C#N)CC4)cc3)c12` [compound 261, 4-[4-(4-cyanopiperidin-1-yl)phenyl]-3-(propan-2-yl)-1-[3-(trifluoromethyl)phenyl]-1H-pyrazolo[3,4-b]pyridine-6-carboxylic acid], the figures for the “% Activation” value on ΔF508-CFTR [1] (setting [4]) and at ΔF508-CFTR [2] were 314.07% and 519.37%, respectively. Also, the EC50 at ΔF508-CFTR [1] (setting [5]) was 702 nM; at ΔF508-CFTR [2] it was 553 nM.

As for `Cc1cccc(-n2nc(C(C)C)c3c(N4CCC5C(CCN5CC#N)C4)cc(C(=O)O)nc32)c1` (stereo not shown) [compound 256, 4-[1-(cyanomethyl)octahydro-5H-pyrrolo[3,2-c]pyridin-5-yl]-1-(3-methylphenyl)-3-(propan-2-yl)-1H-pyrazolo[3,4-b]pyridine-6-carboxylic acid], the entries for the “% Activation” value on ΔF508-CFTR [1] (setting [4]) and at ΔF508-CFTR [2] were 180% and 362.25%, respectively. In addition, the EC50 at ΔF508-CFTR [1] (setting [5]) was 3340 nM; at ΔF508-CFTR [2], 2050 nM.

Take `CC(C)c1nn(C2CCCCC2)c2nc(C(=O)O)cc(-c3ccc(N(C)C)nc3)c12` [compound 93, 1-cyclohexyl-4-[6-(dimethylamino)pyridin-3-yl]-3-(propan-2-yl)-1H-pyrazolo[3,4-b]pyridine-6-carboxylic acid]: the entries for the “% Activation” value on ΔF508-CFTR [1] (setting [4]) and on ΔF508-CFTR [2] were 175.6% and 379.57%, respectively. Besides, the values for the EC50 on ΔF508-CFTR [1] (setting [5]) and on ΔF508-CFTR [2] were 680 nM and 491 nM, respectively.

`O=C(O)c1cc(-c2ccc(N3CCOCC3)cc2)c2c(C3CCC3)nn(-c3ccc(F)c(F)c3)c2n1` [compound 350, 3-cyclobutyl-1-(3,4-difluorophenyl)-4-[4-(morpholin-4-yl)phenyl]-1H-pyrazolo[3,4-b]pyridine-6-carboxylic acid]: the “% Activation” value was 211% at ΔF508-CFTR [1] (setting [4]) and 397.5% on ΔF508-CFTR [2]. Further, the 50% effective concentration (EC50) on ΔF508-CFTR [1] (setting [5]) worked out at 426 nM; on ΔF508-CFTR [2] it was 316 nM.

Consider `CC(C)c1nn(C2CCCC2)c2nc(C(=O)O)cc(-c3ccc(N4CCOCC4)cc3)c12` [compound 69, 1-cyclopentyl-4-[4-(morpholin-4-yl)phenyl]-3-(propan-2-yl)-1H-pyrazolo[3,4-b]pyridine-6-carboxylic acid], for which the entries for the “% Activation” value at ΔF508-CFTR [1] (setting [4]) and at ΔF508-CFTR [2] were 150.25% and 366.8%, respectively. Moreover, the results for the EC50 at ΔF508-CFTR [1] (setting [5]) and at ΔF508-CFTR [2] were 970 nM and 993 nM, respectively.

With `CC(C)c1nn(-c2cccc(N(C)C)c2)c2nc(C(=O)O)cc(-c3ccc(N(C)C4CCOCC4)nc3)c12` [compound 189, 1-[3-(dimethylamino)phenyl]-4-{6-[methyl(oxan-4-yl)amino]pyridin-3-yl}-3-(propan-2-yl)-1H-pyrazolo[3,4-b]pyridine-6-carboxylic acid], the “% Activation” value is listed as 385.02% at ΔF508-CFTR [1] (setting [4]) and 590.78% at ΔF508-CFTR [2]. Also, the EC50 at ΔF508-CFTR [1] (setting [5]) amounted to 514 nM; on ΔF508-CFTR [2], 292 nM.

As to `O=C(O)c1cc(N2CCC3(CC2)CC(N2CCCC2)CO3)c2c(C3CCC3)nn(-c3ccc(F)cc3)c2n1` (stereo not shown) [compound 862, 3-cyclobutyl-1-(4-fluorophenyl)-4-[3-(pyrrolidin-1-yl)-1-oxa-8-azaspiro[4.5]decan-8-yl]-1H-pyrazolo[3,4-b]pyridine-6-carboxylic acid], at ΔF508-CFTR [1] (setting [3]), the “% Activation” value is reported as 186.5% and the half-maximal effective concentration (EC50) came to 637 nM. Also, at ΔF508-CFTR [2], the “% Activation” value came to 359.6% and the EC50 stood at 636 nM.

Regarding `O=C(O)c1cc(OCC2CCOCC2)c2c(C3CCC3)nn(-c3ccccc3)c2n1` [compound 417, 3-cyclobutyl-4-[(oxan-4-yl)methoxy]-1-phenyl-1H-pyrazolo[3,4-b]pyridine-6-carboxylic acid], on ΔF508-CFTR [1] (setting [3]), the “% Activation” value is given as 134.8% and the EC50 came to 546 nM. On ΔF508-CFTR [2], the “% Activation” value was determined as 322% and the EC50 is 318 nM.

Consider `Cc1cccc(-n2nc(C(C)C)c3c(N4CCC5(CC4)CN(C)C(=O)O5)cc(C(=O)O)nc32)c1` [compound 359, 4-(3-methyl-2-oxo-1-oxa-3,8-diazaspiro[4.5]decan-8-yl)-1-(3-methylphenyl)-3-(propan-2-yl)-1H-pyrazolo[3,4-b]pyridine-6-carboxylic acid], for which the “% Activation” value at ΔF508-CFTR [1] (setting [4]) amounted to 142%; at ΔF508-CFTR [2], 349.55%. The values for the EC50 on ΔF508-CFTR [1] (setting [5]) and on ΔF508-CFTR [2] were 2040 nM and 2180 nM, respectively.

Turning to `CCCCN1CCCN(c2cc(C(=O)O)nc3c2c(C(C)C)nn3-c2ccc(F)cc2)CC1` [compound 768, 4-(4-butyl-1,4-diazepan-1-yl)-1-(4-fluorophenyl)-3-(propan-2-yl)-1H-pyrazolo[3,4-b]pyridine-6-carboxylic acid], at ΔF508-CFTR [1] (setting [3]), the “% Activation” value stood at 79.69% and the EC50 turned out to be 1580 nM. In addition, at ΔF508-CFTR [2], the “% Activation” value is given as 256.5% and the EC50 came out at 1670 nM.

On to `CC(C)c1nn(C2CCCCC2)c2nc(C(=O)O)cc(-c3cn[nH]c3)c12` [compound 363, 1-cyclohexyl-3-(propan-2-yl)-4-(1H-pyrazol-4-yl)-1H-pyrazolo[3,4-b]pyridine-6-carboxylic acid], for which the results for the “% Activation” value on ΔF508-CFTR [1] (setting [4]) and on ΔF508-CFTR [2] were 56.625% and 187.2%, respectively. Further, the EC50 at ΔF508-CFTR [1] (setting [5]) amounted to 2470 nM; on ΔF508-CFTR [2] it was 2330 nM.

In the case of `Cc1nn(-c2ccccc2)c2nc(C(=O)O)cc(OCC(=O)N3CCCCC3)c12` [compound 383, 3-methyl-4-[2-oxo-2-(piperidin-1-yl)ethoxy]-1-phenyl-1H-pyrazolo[3,4-b]pyridine-6-carboxylic acid], the “% Activation” value came out at 16.587% at ΔF508-CFTR [1] (setting [4]) and 129.7% on ΔF508-CFTR [2]. In addition, the EC50 at ΔF508-CFTR [1] (setting [5]) and on ΔF508-CFTR [2] was 5010 nM throughout.

For `CC(C)c1nn(-c2cc(F)cc(F)c2)c2nc(C(=O)O)cc(-c3ccc(N(C)C4CCOCC4)nc3)c12` [compound 246, 1-(3,5-difluorophenyl)-4-{6-[methyl(oxan-4-yl)amino]pyridin-3-yl}-3-(propan-2-yl)-1H-pyrazolo[3,4-b]pyridine-6-carboxylic acid], the “% Activation” value came out at 212.75% on ΔF508-CFTR [1] (setting [4]) and 457.57% at ΔF508-CFTR [2]. The EC50 was determined as 464 nM at ΔF508-CFTR [1] (setting [5]) and 467 nM at ΔF508-CFTR [2].

Consider `CCCN1CCN(c2cc(C(=O)O)nc3c2c(C(C)C)nn3-c2ccc(F)cc2)CC1` [compound 777, 1-(4-fluorophenyl)-3-(propan-2-yl)-4-(4-propylpiperazin-1-yl)-1H-pyrazolo[3,4-b]pyridine-6-carboxylic acid], for which the “% Activation” value at ΔF508-CFTR [1] (setting [3]) was 95%; on ΔF508-CFTR [2], 254.9%. The EC50 was found to be 1670 nM at ΔF508-CFTR [1] (setting [3]) and 955 nM at ΔF508-CFTR [2].

For the origin of these results see patent US9796711B2, “Substituted pyrazolo[3,4-b]pyridin-6-carboxylic acids and method of use” (AbbVie S.àr.l., priority 2015, dated 2017).
